In patent publication US10364256B2 (GlaxoSmithKline Intellectual Property Development Limited, priority 2015, dated 2019):
Read-outs that look alike come from different tables or passages of the source.

What was measured:
[1] = tested on: NQO1 specific enzyme activity in BEAS-2B cells (marker for NRF2 activation); experiment: BEAS-2B NQO1 MTT Assay; type: cell-based; conditions: compound incubated 48 hours, read-out: EC50 (NQO1 specific enzyme activity induction)
Source text: BEAS-2B NQO1 MTT Assay NAD(P)H:quinone oxidoreductase 1 (NQO1), also called DT diaphorase, is a homodimeric FAD-containing enzyme that catalyzes obligatory NAD(P)H-dependent two-electron reductions of quinones and protects cells against the toxic and neoplastic effects of free radicals and reactive oxygen species arising from one-electron reductions. The transcription of NQO1 is finely regulated by NRF2, and thus NQO1 activity is a good marker for NRF2 activation. On day one, frozen BEAS-2B cells (ATCC) are thawed in a water bath, counted, and re-suspended at a concentration of 250,000 cells/mL. Fifty microliters of cells are plated in 384 well black clear-bottomed plates. Plates are incubated at 37° C., 5% CO2 overnight. On day two, plates are centrifuged and 50 nL of compound or controls are added to the cells. Plates are then incubated at 37° C., 5% CO2 for 48 hours. On day four, medium is aspirated from the plate and crude cell lysates are made by adding 13 uL of 1× Cell Signaling Technologies lysis buffer with 1 Complete, Mini, EDTA-free Protease Inhibitor Tablet (Roche) for each 10 mL of lysis buffer. After lysis plates are incubated for 20 minutes at room temperature. Two microliters of lysate are removed for use in Cell Titer Glo assay (Promega) and MTT cocktail is prepared (Prochaska et. al. 1998) for measurement of NQO1 activity. Fifty microliters of MTT cocktail is added to each well, plate is centrifuged, and analyzed on an Envision plate reader (Perkin Elmer) using Absorbance 570 nm label for 30 minutes. Product formation is measured kinetically and the pEC50 of NQO1 specific activity induction is calculated by plotting the change in absorbance (Delta OD/min) versus the log of compound concentration followed by 3-parameter fitting. pEC50 is the negative log of the EC50.

[2] = target: T1, Keap1 Kelch domain (321-609) / TAMRA-labeled 16mer NRF2 peptide (ETGE motif) (Homo sapiens, UniProt Q14145); experiment: NRF2-Keap1 FP Assay (Keap1 Kelch fluorescence polarization); type: binding; conditions: 20 nM Keap1 (321-609), 8 nM Tamra labeled peptide
T1 construct: the Kelch domain (321-609) of Keap1 is used
T1 sequence (Q14145 321-609): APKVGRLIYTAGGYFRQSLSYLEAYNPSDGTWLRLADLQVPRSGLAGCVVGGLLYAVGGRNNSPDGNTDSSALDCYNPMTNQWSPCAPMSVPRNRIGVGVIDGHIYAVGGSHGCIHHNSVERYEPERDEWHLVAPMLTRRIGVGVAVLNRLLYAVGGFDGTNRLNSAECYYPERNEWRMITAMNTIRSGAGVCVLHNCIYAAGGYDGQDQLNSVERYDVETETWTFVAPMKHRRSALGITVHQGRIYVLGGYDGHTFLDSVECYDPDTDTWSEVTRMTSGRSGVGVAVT
Source text: One model for the NRF2-Keap1 interaction is through two binding sites in the Neh2 domain on NRF2. The two sites are referred to as the DLG binding motif (latch domain, uM affinity) and the ETGE binding motif (hinge domain, nM affinity). The Keap1 protein consists of an N-terminal region (NTR), a broad complex, tramtrack, and brick a′ brac domain (BTB), an intervening region (IVR), a double glycine repeat domain (DGR or Kelch), and a C-terminal region. The DLG and ETGE motifs of NRF2's Neh2 domain bind to the Kelch domain of Keap1 at different affinities. In the Keap1 Kelch fluorescence polarization (FP) assay, a TAMRA-labeled 16mer peptide (AFFAQLQLDEETGEFL) containing the ETGE motif of NRF2 and the Kelch domain (321-609) of Keap1 is used. The assay determines if a compound interferes with the binding between Keap1 […] and the TAMRA-labeled peptide. Binding of TAMRA-labeled NRF2 peptide to Keap1 (321-609) results in a high FP signal. If a compound interferes with the binding between the peptide and the protein, it will cause the assay signal to decrease. Thus, assay signal is inversely proportional to binding inhibition.
100 nl of 100× compound dose response curves (serial 3-fold dilutions) in DMSO are stamped using an Echo liquid handling system (Labcyte) into 384-well low volume black assay plates (Greiner, #784076), with DMSO in columns 6 and 18. The top concentration of compound is located in columns 1 and 13. Keap1 (321-609) is diluted to 40 nM (2×) in 1× assay buffer (50 mM Tris, pH 8.0, 100 mM NaCl, 5 mM MgCl2, 1 mM DTT, 2 mM CHAPS, and 0.005% BSA) and 5 ul is added using a Multidrop Combi (Thermo Electron Corporation) equipped with a metal tip dispenser to all wells of the compound plate, except column 18. Column 18 receives only 5 ul of assay buffer. Immediately, 5 uL of 16 nM (2×) of Tamra labeled peptide (AFFAQLQLDEETGEFL, 21st Century Biochemicals) is added to all wells of the plate. The plates are spun at 500 rpm for 1 min, incubated for 1 hr at room temperature, and read on an Analyst GT (Molecular Devices) equipped with excitation (530/25 nm) and emission (580/10 nm) filters designed for Tamra probes. A 561 nm dichroic mirror is also used in the Analyst. The final assay concentrations of Keap1 (321-609) and Tamra labeled peptide are 20 nM and 8 nM, respectively. Fluorescence measurements, represented as mP, are used in the transformation of the data. Compound activity is calculated based on percent inhibition, normalized against controls in the assay (Control 1 contains the Tamra peptide and Keap1 (321-609) together (0% response) and control 2 contains the Tamra peptide alone (100% response)). Data analysis is handled using the software package Abase XE (Surrey, United Kingdom. The % inhibition values are calculated by the equation: 100−(100*((compound response−average control 2)/(average control 1−average control2))). For calculation of pIC50s, Abase XE uses a four parameter equation. pIC50 is the negative log of the IC50.

[3] = target: T2, full length Keap1 protein / full length NRF2 protein (Homo sapiens, UniProt Q14145); experiment: NRF2-Keap1 TR-FRET Low Protein Assay; type: binding; conditions: 1.25 nM Keap1 FlagHis and 2.5 nM biotin-NRF2 added
T2 construct: full length NRF2 protein and full length Keap1 protein (Keap1 exists a dimer) are used; His
T2 sequence (Q14145 whole entry): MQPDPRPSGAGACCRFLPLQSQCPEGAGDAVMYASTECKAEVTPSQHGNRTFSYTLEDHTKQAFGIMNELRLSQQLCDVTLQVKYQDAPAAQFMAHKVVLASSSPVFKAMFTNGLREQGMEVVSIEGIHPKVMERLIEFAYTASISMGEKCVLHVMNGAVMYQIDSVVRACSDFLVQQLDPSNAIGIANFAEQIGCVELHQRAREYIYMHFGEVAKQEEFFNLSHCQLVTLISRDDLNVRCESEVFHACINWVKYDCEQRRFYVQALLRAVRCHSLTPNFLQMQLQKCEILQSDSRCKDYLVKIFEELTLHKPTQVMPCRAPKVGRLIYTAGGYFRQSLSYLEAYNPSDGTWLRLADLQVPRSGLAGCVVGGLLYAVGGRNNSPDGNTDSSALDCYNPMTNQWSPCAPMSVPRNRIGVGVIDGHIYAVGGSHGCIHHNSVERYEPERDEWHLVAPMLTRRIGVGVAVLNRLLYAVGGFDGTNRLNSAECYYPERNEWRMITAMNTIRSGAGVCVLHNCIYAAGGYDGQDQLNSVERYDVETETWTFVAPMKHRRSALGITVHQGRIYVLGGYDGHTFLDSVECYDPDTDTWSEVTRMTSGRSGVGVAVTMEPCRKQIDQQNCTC
Source text: NRF2-Keap1 TR-FRET Low Protein Assay In the NRF2-Keap1 TR-FRET (time-resolved fluorescence resonance energy transfer) low protein assay, full length NRF2 protein and full length Keap1 protein (Keap1 exists a dimer) are used. The assay detects a compound's ability to displace the binding of Keap1 […] with biotinylated Avi-NRF2 protein. Biotin-NRF2 binds to streptavidin-europium (a component of the detection mix) and Keap1 […] is recognized by anti-Flag APC (allophycocyanin) antibody (also a component of the detection mix). If binding occurs between the two proteins, there will be an energy transfer from the Eu+3 (donor) at 615 nm to the APC (acceptor) at 665 nm. A potential NRF2 inhibitor will cause a reduction in the TR-FRET signal by interfering with the binding of Keap1 to NRF2. Ten nanoliters of 100× compound dose response curves (serial 3-fold dilutions) in DMSO are stamped using an Echo liquid handling system (Labcyte) into 384-well, low volume, black assay plates (Greiner, #784076), with DMSO in columns 6 and 18. An additional 90 nl DMSO is added to each well, to bring the total volume to 100 nl per well. The top concentration of compound is located in columns 1 and 13, with the serial dilutions going across the row. All reagents are diluted in assay buffer (50 mM Tris, pH 8.0, 5 mM MgCl2, 100 mM NaCl, 0.005% BSA, 1 mM DTT, and 2 mM CHAPS. The BSA, DTT, and CHAPS are added to the assay buffer on the day of assay. […] Wells in column 18 receive 5 ul of assay buffer instead. Plates are centrifuged at 500 rpm for 1 minute, covered with a plate lid, and incubated at 37° C. for 2.25 hours. Plates are then removed from the incubator and allowed to cool to RT for 15 minutes. Five microliters of 2.5 nM biotin-NRF2 protein is then added to all wells of the plates and the plates are spun at 500 rpm for 1 minute, followed by incubating at 4° C. for 1.25 hours. The plates are then allowed to warm to RT for 15 minutes, followed by the addition of 10 ul of detection mix (1 nM Streptavidin Eu+W1024 and 5 ug/ml mouse anti-DYKDDDDK IgG conjugated to SureLight APC antibody; both from Columbia Biosciences) to all wells. Plates are spun at 500 rpm for 1 minute, incubated for 1 hour at RT, and read on an Envision plate reader using a 320 nm excitation filter and 615 nm and 665 nm emission filters. […] Data analysis is handled using the software package Abase XE (Surrey, United Kingdom). […] For calculation of pIC50s, Abase XE uses a four parameter equation. pIC50 is the negative log of the IC50.

| SMILES | IC50 [2] | IC50 [3] | EC50 ([1]; Homo sapiens) | EC50 [1] |
| --- | --- | --- | --- | --- |
| C[C@H](Oc1cccc(-c2cccc(-n3ncc(C(=O)O)c3[C@@H]3C[C@H]3c3cnn(C)c3)c2)c1)C1CCCCC1 (racemic) [Example 103, 1-(3′-((S)-1-cyclohexylethoxy)-[1,1′-biphenyl]-3-yl)-5-(trans-2-(1-methyl-1H-pyrazol-4-yl)cyclopropyl)-1H-pyrazole-4-carboxylic Acid] | 1000 to 10000 nM | 1000 to 10000 nM | 100 to 1000 nM | – |
| C[C@H](Oc1cccc(-c2cccc(-n3ncc(C(=O)O)c3[C@@H]3C[C@H]3c3cn(C4CC4)nn3)c2)c1)C1CCCCC1 [Example 98, 1-(3′-((S)-1-Cyclohexylethoxy)-[1,1′-biphenyl]-3-yl)-5-((1R,2R)-2-(1-cyclopropyl-1H-1,2,3-triazol-4-yl)cyclopropyl)-1H-pyrazole-4-carboxylic acid] | 10 to 100 nM | < 10 nM | 1 to 10 nM | – |
| CCOC(=O)c1cnn(-c2cccc(-c3cccc(O[C@@H](C)C4CCCCC4)c3)c2)c1[C@@H]1C[C@H]1c1cn(C)nn1 [Example 105, Ethyl 1-(3′-((S)-1-cyclohexylethoxy)-[1,1′-biphenyl]-3-yl)-5-((1R,2R)-2-(1-methyl-1H-1,2,3-triazol-4-yl)cyclopropyl)-1H-pyrazole-4-carboxylate] | > 10000 nM | 1000 to 10000 nM | < 1 nM | – |
| C[C@H](Oc1cccc(-c2cccc(-n3ncc(C(=O)O)c3[C@@H]3C[C@H]3c3cn(C)nn3)c2)c1)C1CCCCC1 [Example 69, Barium 1-(3′-((S)-1-Cyclohexylethoxy)-[1,1′-biphenyl]-3-yl)-5-((1R,2R)-2-(1-methyl-1H-1,2,3-triazol-4-yl)cyclopropyl)-1H-pyrazole-4-carboxylate Hydroxide] | 1 to 10 nM | < 10 nM | – | < 1 nM |
| C[C@H](Oc1cccc(-c2cccc(-n3ncc(C(=O)O)c3[C@@H]3C[C@H]3c3cn(C4CCOCC4)nn3)c2)c1)C1CCCCC1 [Example 95, 1-(3′-((S)-1-Cyclohexylethoxy)-[1,1′-biphenyl]-3-yl)-5-((1R,2R)-2-(1-(tetrahydro-2H-pyran-4-yl)-1H-1,2,3-triazol-4-yl)cyclopropyl)-1H-pyrazole-4-carboxylic Acid] | 10 to 100 nM | < 10 nM | 1 to 10 nM | – |
| C[C@H](Oc1cccc(-c2cccc(-n3ncc(C(=O)O)c3[C@@H]3C[C@H]3c3cn(CC(F)(F)F)nn3)c2)c1)C1CCCCC1 [Example 97, 1-(3′-((S)-1-Cyclohexylethoxy)-[1,1′-biphenyl]-3-yl)-5-((1R,2R)-2-(1-(2,2,2-trifluoroethyl)-1H-1,2,3-triazol-4-yl)cyclopropyl)-1H-pyrazole-4-carboxylic acid] | 10 to 100 nM | 10 to 100 nM | 1 to 10 nM | – |

Second part, led by results:

| IC50 [2] | IC50 [3] | SMILES | EC50 ([1]; Homo sapiens) | EC50 [1] |
| --- | --- | --- | --- | --- |
| 1 to 10 nM | < 10 nM | CC[C@H]1c2ccccc2OCCN1Cc1cccc(-c2cccc(-n3ncc(C(=O)O)c3[C@@H]3C[C@H]3c3cn(C)nn3)c2)c1 (single isomer, unassigned; isomer 2) [Example 121] | 10 to 100 nM | – |
| 10 to 100 nM | 10 to 100 nM | CCCC1CCCCN1S(=O)(=O)c1cccc(-c2cccc(-n3ncc(C(=O)O)c3[C@@H]3C[C@H]3c3cn(C)nn3)c2)c1 (mixture of isomers) [Example 142, 5-((1,2-trans)-2-(1-Methyl-1H-1,2,3-triazol-4-yl)cyclopropyl)-1-(3′-((2-propylpiperidin-1-yl)sulfonyl)-[1,1′-biphenyl]-3-yl)-1H-pyrazole-4-carboxylic Acid] | 100 to 1000 nM | – |
| 100 to 1000 nM | 10 to 100 nM | Cn1cc([C@@H]2C[C@H]2c2c(C(=O)O)cnn2-c2cccc(-c3cccc(CCC4CCCCC4)c3)c2)nn1 (racemic) [Example 114, rac-1-(3′-(2-Cyclohexylethyl)-[1,1′-biphenyl]-3-yl)-5-(-2-(1-methyl-1H-1,2,3-triazol-4-yl)cyclopropyl)-1H-pyrazole-4-carboxylic Acid] | 10 to 100 nM | – |
| 10 to 100 nM | < 10 nM | CC[C@H]1COc2ccccc2CN1Cc1cccc(-c2cccc(-n3ncc(C(=O)O)c3[C@@H]3C[C@H]3c3cn(C)nn3)c2)c1 [Example 119, 1-(3′-(((S)-3-Ethyl-2,3-dihydrobenzo[f][1,4]oxazepin-4(5H)-yl)methyl)-[1,1′-biphenyl]-3-yl)-5-((1R,2R)-2-(1-methyl-1H-1,2,3-triazol-4-yl)cyclopropyl)-1H-pyrazole-4-carboxylic Acid] | 100 to 1000 nM | – |
